Laboratory results published in US7202282B2, “Microemulsions for selective molecular separation” (University of Florida, priority 2002, dated 2007).

Experiment: selective molecular separation (partitioning) of local anesthetics by a microemulsion having an electron deficient aromatic ring
Assay type: physicochemical
Settings: microemulsion with electron deficient ring oil, e.g. 1,3 di(trifluoromethyl) benzene
From the text: In one embodiment, the materials and/or methods of the subject invention can be used to separate drugs of the same class. A specific embodiment involves separating local anesthetics. […] This is accomplished by exploiting differences in electron density in π electron orbitals.
In these molecules, the π electron orbitals are aligned at right angles to the planar surface of the benzene rings. Differences in substitution by the side chain in cocaine or bupivacaine cause either electron depletion (δ^+) or enrichment (δ^−). Such characteristics can be used to selectively separate these molecules.
According to the subject invention, any oil or “mating” molecule with a benzene ring is acceptable in providing a microemulsion system, as long as the substitutions are electron withdrawing from the benzene ring into the side chains. In this case, the electron deficient ring is a component of a molecule (e.g., 1,3 di(trifluoromethyl) benzene) that, at room and physiological temperatures, is an oil (FIG. 3). Thus, these oil molecules can be used to construct the lipid core of a microemulsion or may be added as solutes into the lipid core of a microemulsion wherein another oil serves as the lipid core.

## CCCCN1CCCCC1C(=O)Nc1c(C)cccc1C (stereo not shown) [bupivacaine]
  partitioning into the microemulsion (molecular separation, FIG. 4): selectively partition
